Measured values from the SangsterLogP compilation.

Assay: from Kabankin, S.; Boldeskul, E.; Trinus, P.; Protsenko, D.; Landau, A. (1982). Physicochemical characteristics, antitumor activity and quantitative structure-activity relations for phosphoric …
Conditions: pH 7.4

Structure (SMILES)	logD
O=C(NP(=O)(N1CC1)N1CC1)c1cccc(Br)c1	0.88
C=CCc1cccc(C(=O)NP(=O)(N2CC2)N2CC2)c1	0.65
O=C(NP(=O)(N1CC1)N1CC1)c1cc(Br)cc(Br)c1	1.15
O=C(NP(=O)(N1CC1)N1CC1)c1ccc(I)cc1	1.63
O=C(NP(=O)(N1CC1)N1CC1)c1cccc(I)c1	1.37
O=C(NP(=O)(N1CC1)N1CC1)c1cc(I)cc(I)c1I	0.81
CCOc1cccc(C(=O)NP(=O)(N2CC2)N2CC2)c1	0.42
O=C(NP(=O)(N1CC1)N1CC1)c1ccc(F)cc1	0.13
COc1ccc(C(=O)NP(=O)(N2CC2)N2CC2)cc1	-0.02
COc1cccc(C(=O)NP(=O)(N2CC2)N2CC2)c1	0.04
O=C(NP(=O)(N1CC1)N1CC1)c1cc(I)cc(I)c1	2.52
O=C(NP(=O)(N1CC1)N1CC1)c1ccccc1Br	0.45
O=C(NP(=O)(N1CC1)N1CC1)c1ccc(Cl)cc1	0.46
C=CCc1ccc(C(=O)NP(=O)(N2CC2)N2CC2)cc1	0.69
O=C(NP(=O)(N1CC1)N1CC1)c1ccccc1	-0.15
